# Measured values reported in patent US4507313A, “Oxadiazolyl-imidazo-[1,4]benzodiazepines and their use in treatment of diseases of the central nervous system” (A/S Ferrosan, priority 1982, dated 1985).
# Tests used:
# benzodiazepine receptors [1] = assay: Displacement of 3H-flunitrazepam binding in vitro (rat forebrain membrane suspension); settings: 3H-flunitrazepam 1.0 nM, 0° C., 25 mM KH2PO4 pH 7.1, rat forebrain, 40-60 min
# benzodiazepine receptors [2] = assay: Inhibition of 3H-flunitrazepam binding to benzodiazepine receptors in living brain, in vivo; settings: mice, usually subcutaneous; 3H-flunitrazepam i.v. 15 min later, killed after further 20 min; 50% reduction of specific binding
# Method: The ED50 value represents the dose (mg/kg) of a test substance which causes the specific binding of flunitrazepam to benzodiazepine receptors in a living brain to be reduced to 50% of the control value. Such an in vivo test is carried out as follows:
# Groups of mice are injected with the test substance at different doses and usually subcutaneously. 15 minutes later, ^3 H-flunitrazepam is given intravenously to the mice and after a further 20 minutes, the mice are killed, their […] by scintillation counting. The ED50 value is determined from dose-response curves.
compound,measurement,setting,value
"CCc1noc(-c2ncn3c2CN(C)C(=O)c2cc(Cl)ccc2-3)n1 [8-chloro-5,6-dihydro-3-[5-(3-ethyl-1,2,4-oxadiazole)-yl]-5-methyl-6-oxo-4H-imidazo[1,5-a][1,4]benzodiazepine]",Inhibition of 3H-flunitrazepam-binding in vitro IC50,benzodiazepine receptors [1],> 10 ng/mL
same,Inhibition of 3H-flunitrazepam-binding in vivo ED50,benzodiazepine receptors [2],5.9 mg/kg
"CCc1noc(-c2ncn3c2CN(C)C(=O)c2cc(F)ccc2-3)n1 [5,6-dihydro-3-[5-(3-ethyl-1,2,4-oxadiazole)-yl]-8-fluoro-5-methyl-6-oxo-4H-imidazo[1,5-a][1,4]benzodiazepine]",Inhibition of 3H-flunitrazepam-binding in vitro IC50,benzodiazepine receptors [1],3.5 ng/mL
same,Inhibition of 3H-flunitrazepam-binding in vivo ED50,benzodiazepine receptors [2],4.5 mg/kg
"CCOC(=O)c1ncn2c1CN(C)C(=O)c1ccccc1-2 [ethyl-5,6-dihydro-5-methyl-6-oxo-4H--imidazo[1,5-a][1,4]benzodiazepine-3-carboxylate, reference compound]",Inhibition of 3H-flunitrazepam-binding in vivo ED50,benzodiazepine receptors [2],> 30 mg/kg
"CCc1noc(-c2ncn3c2CN(C)C(=O)c2ccccc2-3)n1 [3-[5-(3-ethyl-1,2,4-oxadiazole)-yl]-5,6-dihydro-5-methyl-6-oxo-4H-imidazo[1,5-a][1,4]benzodiazepine]",Inhibition of 3H-flunitrazepam-binding in vitro IC50,benzodiazepine receptors [1],12 ng/mL
same,Inhibition of 3H-flunitrazepam-binding in vivo ED50,benzodiazepine receptors [2],2.2 mg/kg
"CCOC(=O)c1ncn2c1CN(C)C(=O)c1cc(Cl)ccc1-2 [ethyl-8-chloro-5,6-dihydro-5-methyl-6-oxo-4H--imidazo[1,5-a][1,4]benzodiazepine-3-carboxylate, reference compound]",Inhibition of 3H-flunitrazepam-binding in vitro IC50,benzodiazepine receptors [1],7.9 ng/mL
same,Inhibition of 3H-flunitrazepam-binding in vivo ED50,benzodiazepine receptors [2],> 30 mg/kg
